# Assay results: patent US20170320870A1 (Medical Research Council Technology, priority 2009, published 2017)
# Target: T1, LRRK2 wild type (recombinant human, catalytic domain amino acids 970-2527, GST-tagged) (Homo sapiens, UniProt Q5S007)
# T1 construct: The wild type used was recombinant human, catalytic domain (amino acids 970-2527) GST-tagged, expressed in insect cells; GST; purchased Invitrogen Corporation PV4873; host or cells: insect cells
# Assay: LRRK2 wild type protein kinase assay ([γ-33P] ATP, peptide substrate […]), IC50
# Type: biochemical
# Settings: LRRK2 (variant not given); read-out: Potency score, LRRK2 IC50
# Outline: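 IC50 derived from duplicate 10-point titrations, with 33P incorporation into a 100 μM peptide counted after P81 filter capture. Roughly 5 nM unactivated kinase reacted with Mg/[γ-33P]ATP for 180 min at room temperature (~21 °C), pH 7.5 Tris buffer containing 10 mM MgCl2, EGTA and DTT; acid-quenched.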
# T1 sequence (Q5S007 970-2527): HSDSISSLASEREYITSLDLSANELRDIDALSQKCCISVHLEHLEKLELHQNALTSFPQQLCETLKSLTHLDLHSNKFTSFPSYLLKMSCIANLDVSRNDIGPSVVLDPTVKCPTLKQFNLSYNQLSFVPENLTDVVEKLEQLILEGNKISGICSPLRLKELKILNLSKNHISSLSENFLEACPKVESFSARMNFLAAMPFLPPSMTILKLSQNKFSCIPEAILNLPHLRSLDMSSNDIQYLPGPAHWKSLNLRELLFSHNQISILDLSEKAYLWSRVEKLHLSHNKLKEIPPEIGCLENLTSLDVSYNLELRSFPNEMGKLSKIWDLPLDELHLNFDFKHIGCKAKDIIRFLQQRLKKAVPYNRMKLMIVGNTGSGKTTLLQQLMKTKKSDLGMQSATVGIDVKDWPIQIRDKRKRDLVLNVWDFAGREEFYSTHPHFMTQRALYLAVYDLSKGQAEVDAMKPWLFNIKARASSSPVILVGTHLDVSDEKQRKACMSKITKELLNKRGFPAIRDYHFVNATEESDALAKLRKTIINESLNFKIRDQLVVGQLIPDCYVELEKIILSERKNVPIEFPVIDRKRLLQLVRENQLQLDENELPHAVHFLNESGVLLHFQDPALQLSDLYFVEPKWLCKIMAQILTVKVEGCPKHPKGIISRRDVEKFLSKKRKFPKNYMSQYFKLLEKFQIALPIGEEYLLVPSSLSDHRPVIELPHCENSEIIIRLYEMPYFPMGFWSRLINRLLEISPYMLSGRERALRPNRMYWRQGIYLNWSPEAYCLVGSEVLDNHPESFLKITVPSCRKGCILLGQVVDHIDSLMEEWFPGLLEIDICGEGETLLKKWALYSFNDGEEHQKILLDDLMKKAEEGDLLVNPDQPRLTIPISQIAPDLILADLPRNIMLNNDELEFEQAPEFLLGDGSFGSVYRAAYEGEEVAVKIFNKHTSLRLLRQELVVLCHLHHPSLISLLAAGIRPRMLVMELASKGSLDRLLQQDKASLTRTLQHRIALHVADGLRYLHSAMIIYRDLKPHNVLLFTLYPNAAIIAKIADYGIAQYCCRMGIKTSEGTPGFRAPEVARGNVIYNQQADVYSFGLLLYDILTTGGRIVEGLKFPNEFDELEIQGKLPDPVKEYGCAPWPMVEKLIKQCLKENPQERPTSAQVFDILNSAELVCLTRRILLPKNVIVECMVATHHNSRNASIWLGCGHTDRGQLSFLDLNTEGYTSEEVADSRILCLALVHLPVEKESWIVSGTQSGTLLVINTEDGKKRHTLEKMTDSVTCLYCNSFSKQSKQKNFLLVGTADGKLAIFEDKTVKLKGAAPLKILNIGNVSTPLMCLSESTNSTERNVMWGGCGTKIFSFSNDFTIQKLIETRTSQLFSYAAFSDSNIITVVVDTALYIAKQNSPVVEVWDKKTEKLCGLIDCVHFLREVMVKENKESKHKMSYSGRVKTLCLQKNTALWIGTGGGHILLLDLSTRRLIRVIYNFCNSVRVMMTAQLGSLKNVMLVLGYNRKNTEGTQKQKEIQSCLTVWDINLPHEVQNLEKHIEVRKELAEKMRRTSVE
row,Compound,IC50
1,"Cn1ncnc1C1CCCN(C(=O)CCc2n[nH]c3ccnc(NC4CCCCC4)c23)C1 (centres unmarked) [Example 239, 3-(4-Cyclohexylamino-1H-pyrazolo[4,3-c]pyridin-3-yl)-1-[3-(2-methyl-2H-1,2,4-triazol-3-yl)-piperidin-1-yl]-propan-1-one]",100 to 1000 nM
2,"CCN(CC)CC1CCCN(C(=O)CCc2n[nH]c3ccnc(NC4CCCCC4)c23)C1 (centres unmarked) [Example 240, 3-(4-Cyclohexyl-amino-1H-pyrazolo[4,3-c]pyridin-3-yl)-1-(3-diethylaminomethyl-piperidin-1-yl)-propan-1-one]",100 to 1000 nM
3,"CC1CN(C(=O)CCc2n[nH]c3ccnc(NC4CCCCC4)c23)C1 [Example 241, 3-(4-Cyclohexyl-amino-1H-pyrazolo [4,3-c]pyridin-3-yl)-1-(3-methyl-azetidin-1-yl)-propan-1-one]",< 100 nM
4,"O=C(CCc1n[nH]c2ccnc(NC3CCCCC3)c12)N1CC(c2ccccc2)C1 [Example 242, 3-(4-Cyclohexylamino-1H-pyrazolo[4,3-c]pyridin-3-yl)-1-(3-phenyl-azetidin-1-yl)-propan-1-one]",100 to 1000 nM
5,"C[C@@H]1CCCN(C(=O)CCc2n[nH]c3ccnc(NC4CCCCC4)c23)C1 [Example 243, 3-(4-Cyclohexylamino-1H-pyrazolo[4,3-c]pyridin-3-yl)-1-((R)-3-methyl-piperidin-1-yl)-propan-1-one]",< 100 nM
6,"CC1CN(C(=O)CCc2n[nH]c3ccnc(NC4CCCCC4)c23)CCN1C (centres unmarked) [Example 244, 3-(4-Cyclohexylamino-1H-pyrazolo [4,3-c]pyridin-3-yl)-1-(3,4-dimethyl-piperazin-1-yl)-propan-1-one]",100 to 1000 nM
7,"CN1CCN(C(=O)CCc2n[nH]c3ccnc(NC4CCCCC4)c23)CC1c1ccccc1 (centres unmarked) [Example 245, 3-(4-Cyclohexylamino-1H-pyrazolo[4,3-c]pyridin-3-yl)-1-(4-methyl-3-phenyl-piperazin-1-yl)-propan-1-one]",100 to 1000 nM
8,"C[C@@H]1CCN(C(=O)CCc2n[nH]c3ccnc(NC4CCCCC4)c23)C1 [Example 246, 3-(4-Cyclohexylamino-1H-pyrazolo[4,3-c]pyridin-3-yl)-1-((R)-3-methyl-pyrrolidin-1-yl)-propan-1-one]",< 100 nM
9,"CC1CN(C(=O)c2ccc(CCc3n[nH]c4ccnc(NC5CCCCC5)c34)cc2)CCN1C (centres unmarked) [Example 247, {4-[2-(4-Cyclohexylamino-1H-pyrazolo[4,3-c]pyridin-3-yl)-ethyl]-phenyl}-(3,4-dimethyl-piperazin-1-yl)-methanone]",< 100 nM
10,"O=C(c1ccc(CCc2n[nH]c3ccnc(NC4CCCCC4)c23)cc1)N1CC[C@H](c2cccnc2)C1 [Example 248, {4-[2-(4-Cyclohexylamino-1H-pyrazolo[4,3-c]pyridin-3-yl)-ethyl]-phenyl}-((R)-3-pyridin-3-yl-pyrrolidin-1-yl)-methanone]",< 100 nM
11,"CC(C)CN(C)C(=O)c1ccc(CCc2n[nH]c3ccnc(NC4CCCCC4)c23)cc1 [Example 249, 4-[2-(4-Cyclohexylamino-1H-pyrazolo[4,3-c]pyridin-3-yl)-ethyl]-N-isobutyl-N-methyl-benzamide]",< 100 nM
12,"O=C(NCc1ccco1)c1ccc(CCc2n[nH]c3ccnc(NC4CCCCC4)c23)cc1 [Example 250, 4-[2-(4-Cyclohexylamino-1H-pyrazolo[4,3-c]pyridin-3-yl)-ethyl]-N-furan-2-ylmethyl-benzamide]",< 100 nM
13,"CC1CN(C(=O)c2ccc(CCc3n[nH]c4ccnc(NC5CCCCC5)c34)cc2)C1 [Example 251, {4-[2-(4-Cyclohexylamino-1H-pyrazolo[4,3-c]pyridin-3-yl)-ethyl]-phenyl}-(3-methyl-azetidin-1-yl)-methanone]",< 100 nM
14,"Cn1nccc1NC(=O)c1ccc(CCc2n[nH]c3ccnc(NC4CCCCC4)c23)cc1 [Example 252, 4-[2-(4-Cyclohexylamino-1H-pyrazolo[4,3-c]pyridin-3-yl)-ethyl]-N-(2-methyl-2H-pyrazol-3-yl)-benzamide]",100 to 1000 nM
15,"O=C(c1ccc(CCc2n[nH]c3ccnc(NC4CCCCC4)c23)cc1)N1CCOCC1 [Example 253, {4-[2-(4-Cyclohexylamino-1H-pyrazolo[4,3-c]pyridin-3-yl)-ethyl]-phenyl}-morpholin-4-yl-methanone]",< 100 nM
16,"O=C(Nc1ccc2nccnc2c1)c1ccc(CCc2n[nH]c3ccnc(NC4CCCCC4)c23)cc1 [Example 254, 4-[2-(4-Cyclohexylamino-1H-pyrazolo[4,3-c]pyridin-3-yl)-ethyl]-N-quinoxalin-6-yl-benzamide]",< 100 nM
17,"CC(=O)Nc1cccc(NC(=O)c2ccc(CCc3n[nH]c4ccnc(NC5CCCCC5)c34)cc2)c1 [Example 255, N-(3-Acetylamino-phenyl)-4-[2-(4-cyclohexylamino-1H-pyrazolo[4,3-c]pyridin-3-yl)-ethyl]-benzamide]",< 100 nM
18,"O=C(Nc1ccncc1)c1ccc(CCc2n[nH]c3ccnc(NC4CCCCC4)c23)cc1 [Example 256, 4-[2-(4-Cyclohexylamino-1H-pyrazolo[4,3-c]pyridin-3-yl)-ethyl]-N-pyridin-4-yl-benzamide]",< 100 nM

row,Compound,IC50
1,"O=C(CCc1n[nH]c2ccnc(O)c12)N1CCC[C@H](c2ccccc2)C1 [Example 257, 3-(4-Hydroxy-1H-pyrazolo[4,3-c]pyridin-3-yl)-1-((R)-3-phenyl-piperidin-1-yl)-propan-1-one]",1000 to 10000 nM
2,"COc1nccc2[nH]nc(/C=C/C(=O)N3CCC[C@@H](C)C3)c12 [Example 259, (E)-3-(4-Methoxy-1H-pyrazolo[4,3-c]pyridin-3-yl)-1-((R)-3-methyl-piperidin-1-yl)-propenone]",< 100 nM
3,"COc1nccc2[nH]nc(CCC(=O)N3CCC[C@H](c4ccccc4)C3)c12 [Example 260, 3-(4-Methoxy-1H-pyrazolo[4,3-c]pyridin-3-yl)-1-((R)-3-phenyl-piperidin-1-yl)-propan-1-one]",100 to 1000 nM
4,"O=C(/C=C/c1n[nH]c2ccnc(OC3CCCCC3)c12)N1CCC[C@H](c2ccccc2)C1 [Example 261, (E)-3-(4-Cyclohexyloxy-1H-pyrazolo[4,3-c]pyridin-3-yl)-1-((R)-3-phenyl-piperidin-1-yl)-propenone]",< 100 nM
5,"CC(=O)Nc1ccc(CCc2n[nH]c3ccnc(NC4CCCCC4)c23)cc1 [Example 262, N-{4-[2-(4-Cyclohexylamino-1H-pyrazolo[4,3-c]pyridin-3-yl)-ethyl]-phenyl}-acetamide]",< 100 nM
6,"CC(C)C(=O)Nc1ccc(CCc2n[nH]c3ccnc(NC4CCCCC4)c23)cc1 [Example 263, N-{4-[2-(4-Cyclohexylamino-1H-pyrazolo[4,3-c]pyridin-3-yl)-ethyl]-phenyl}-isobutyramide]",100 to 1000 nM
7,"CC(=O)Nc1ccc(C(=O)Nc2ccc(CCc3n[nH]c4ccnc(NC5CCCCC5)c34)cc2)cc1 [Example 264, 4-Acetylamino-N-{4-[2-(4-cyclohexylamino-1H-pyrazolo[4,3-c]pyridin-3-yl)-ethyl]-phenyl}-benzamide]",< 100 nM
8,"O=C(Nc1ccc(CCc2n[nH]c3ccnc(NC4CCCCC4)c23)cc1)c1ccccn1 [Example 265, Pyridine-2-carboxylic acid {4-[2-(4-cyclohexylamino-1H-pyrazolo[4,3-c]pyridin-3-yl)-ethyl]-phenyl}-amide]",< 100 nM
9,"O=C(Nc1ccc(CCc2n[nH]c3ccnc(NC4CCCCC4)c23)cc1)c1cccnc1 [Example 266, N-{4-[2-(4-Cyclohexylamino-1H-pyrazolo[4,3-c]pyridin-3-yl)-ethyl]-phenyl}-nicotinamide]",< 100 nM
10,"O=C(Nc1ccc(CCc2n[nH]c3ccnc(NC4CCCCC4)c23)cc1)c1ccncc1 [Example 267, N-{4-[2-(4-Cyclohexylamino-1H-pyrazolo[4,3-c]pyridin-3-yl)-ethyl]-phenyl}-isonicotinamide]",< 100 nM
11,"O=C(Nc1ccc(CCc2n[nH]c3ccnc(NC4CCCCC4)c23)cc1)c1cocn1 [Example 268, Oxazole-4-carboxylic acid {4-[2-(4-cyclohexylamino-1H-pyrazolo[4,3-c]pyridin-3-yl)-ethyl]-phenyl}-amide]",< 100 nM
12,"Cn1cnc(C(=O)Nc2ccc(CCc3n[nH]c4ccnc(NC5CCCCC5)c34)cc2)c1 [Example 269, 1-Methyl-1H-imidazole-4-carboxylic acid {4-[2-(4-cyclohexylamino-1H-pyrazolo[4,3-c]pyridin-3-yl)-ethyl]-phenyl}-amide]",< 100 nM
13,"O=C(Nc1ccc(CCc2n[nH]c3ccnc(NC4CCCCC4)c23)cc1)c1ccc2nccnc2c1 [Example 270, Quinoxaline-6-carboxylic acid {4-[2-(4-cyclohexylamino-1H-pyrazolo[4,3-c]pyridin-3-yl)-ethyl]-phenyl}-amide]",< 100 nM
14,"CN1CCC(C(=O)Nc2ccc(CCc3n[nH]c4ccnc(NC5CCCCC5)c34)cc2)CC1 [Example 271, 1-Methyl-piperidine-4-carboxylic acid {4-[2-(4-cyclohexylamino-1H-pyrazolo[4,3-c]pyridin-3-yl)-ethyl]-phenyl}-amide]",100 to 1000 nM
15,"COCC(=O)Nc1ccc(CCc2n[nH]c3ccnc(NC4CCCCC4)c23)cc1 [Example 272, N-{4-[2-(4-Cyclohexylamino-1H-pyrazolo[4,3-c]pyridin-3-yl)-ethyl]-phenyl}-2-methoxy-acetamide]",< 100 nM
16,"O=C(COc1ccccc1)Nc1ccc(CCc2n[nH]c3ccnc(NC4CCCCC4)c23)cc1 [Example 273, N-{4-[2-(4-Cyclohexylamino-1H-pyrazolo[4,3-c]pyridin-3-yl)-ethyl]-phenyl}-2-phenoxy-acetamide]",< 100 nM
17,"O=C(Nc1ccc(CCc2n[nH]c3ccnc(NC4CCCCC4)c23)cc1)C1CC1 [Example 274, Cyclopropanecarboxylic acid {4-[2-(4-cyclohexylamino-1H-pyrazolo[4,3-c]pyridin-3-yl)-ethyl]-phenyl}-amide]",< 100 nM
